The values below are quoted from earlier work in US8586590B2, “Compounds” (GlaxoSmithKline Intellectual Property Development Limited, priority 2009, dated 2013).

One data set relates to neutrophils. The following applies: treatment of neutrophils; Thelen et al. 1994.

Consider `O=c1cc(N2CCOCC2)oc2c(-c3ccccc3)cccc12` [LY294002], for which the “inhibitory activity on phospholipases” value in the data set with phospholipases is given as “some inhibitory activity”. Further, in the data set with neutrophil, the neutrophil migration entry is recorded as “block” and the superoxide release entry is recorded as “block”.

For the molecule `COC[C@H]1OC(=O)c2coc3c2[C@@]1(C)C1=C(C3=O)[C@@H]2CCC(=O)[C@@]2(C)C[C@H]1OC(C)=O` [wortmannin], the “fMLP-induced respiratory burst response” value with neutrophils is “prevents the fMLP-induced respiratory burst response”. In addition, in the data set on neutrophil, the neutrophil migration entry is “block” and the superoxide release result is “block”.
